# Experimental data: patent publication US20140336267A1, “UTILIZATION OF THE FUNCTION OF RARE SUGAR AS PROMOTER FOR THE MIGRATION OF GLUCOKINASE FROM NUCLEUS TO CYTOPLASM” (NATIONAL UNIVERSITY CORPORATION KAGAWA UNIVERSITY, priority 2006, published 2014)
# Assays:
# glucokinase [1] = molecular target: T1, glucokinase (Rattus norvegicus, UniProt P17712); assay: Hepatic glucokinase transfer from nucleus to cytoplasm in Goto-Kakizaki rats (type 2 diabetes model); format: in vivo
# T1 construct: stained by a fluorescence antibody method using an anti-glucokinase antibody; endogenous in cells; host or cells: primary culture of hepatocytes from male Wistar rats
# T1 sequence (P17712 1-465 isoform P17712-3): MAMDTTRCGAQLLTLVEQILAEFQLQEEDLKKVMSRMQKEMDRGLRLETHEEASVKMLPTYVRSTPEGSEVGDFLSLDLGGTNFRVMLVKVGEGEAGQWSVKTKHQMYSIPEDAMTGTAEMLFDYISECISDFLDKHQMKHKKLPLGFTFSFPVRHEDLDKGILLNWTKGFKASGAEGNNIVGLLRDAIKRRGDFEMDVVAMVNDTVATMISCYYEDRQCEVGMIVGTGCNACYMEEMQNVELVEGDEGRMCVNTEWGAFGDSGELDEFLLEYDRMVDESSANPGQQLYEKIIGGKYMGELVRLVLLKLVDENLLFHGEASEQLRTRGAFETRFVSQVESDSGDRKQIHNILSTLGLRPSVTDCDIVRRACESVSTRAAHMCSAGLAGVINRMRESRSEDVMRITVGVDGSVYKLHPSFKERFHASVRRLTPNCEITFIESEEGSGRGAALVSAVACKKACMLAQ
# Procedure: The action of suppressing blood glucose increase with D-fructose at a low concentration was examined. To Goto-Kakizaki rats as a model animal of type 2 diabetes mellitus, D-glucose to 2 g/[…] or D-glucose to 2 g/l kg body weight+D-fructose to 0.2 g/1 kg body weight was administered orally, to examine the modification of glucokinase transfer from the nucleus to the cytoplasm in hepatocytes and the change of the blood glucose levels in the portal vein and the tail vein.
# 2 g/kg D-glucose is orally given to male Goto-Kakizaki rats starved overnight. Simultaneously, 0.2 g/kg D-psicose was orally given. Thirty minutes later and 60 minutes later, the rats were perfused and fixed with 4% para-formaldehyde under anesthesia, from which liver was immediately resected to prepare frozen sections. The distribution of hepatic glucokinase in nucleus and cytoplasm was analyzed with the fluorescence antibody method using an anti-glucokinase antibody. Simultaneously, blood was drawn out from the tail vein and the portal vein, to assay blood glucose level and insulin concentration. Herein, liver is divided in the portal vein region and the central vein region of liver. It has been known that the activity of glucokinase in the central vein region is higher by 1.3 fold to 1.5 fold than the activity thereof in the portal vein region. Therefore, the glucokinase distributions in the nucleus and the cytoplasm in the central vein region and the portal vein region were analyzed.
# glucokinase [2] = molecular target: T1, glucokinase; assay: Hepatic glucokinase transfer from nucleus to cytoplasm after oral sugar given with D-glucose, Wistar rats (Example 3); format: in vivo; conditions: Wistar rats starved overnight; 2 g/kg D-glucose oral alone; 30 minutes later
# Procedure: Male Wistar rats starved overnight were given 2 g/kg D-glucose orally. Simultaneously, 0.2 g/kg D-psicose, D-fructose or a mixture of D-psicose and D-fructose at 1:3 were given orally. Thirty minutes later, the rats were perfused and fixed with 4% para-formaldehyde under anesthesia, from which liver was immediately resected to prepare frozen sections. The distribution of glucokinase in the nucleus and the cytoplasm was analyzed with the fluorescence antibody method using an anti-glucokinase antibody. Simultaneously, blood was drawn out from the tail vein and the portal vein, to assay blood glucose levels.
# glucokinase [3] = molecular target: T1, glucokinase; assay: Glucokinase distribution in primary hepatocytes with D-glucose and D-fructose (fluorescence antibody method); format: cell-based
# Procedure: In the presence of 5 mM D-glucose, glucokinase mainly existed in the cell nucleus.
# (§1) Cultured hepatocytes were incubated in an MEM culture medium containing 5 mM or 25 mM D-glucose with an action of promoting glucokinase transfer from nucleus to cytoplasm. Glucokinase transfer from nucleus to cytoplasm, glycogen synthesis and lactic acid generation were increased. Via glucose, glucokinase transfer from nucleus to cytoplasm occurs, which raises cytoplasmic glucokinase activity to possibly promote the sugar metabolism in liver. […] (FIGS. 4, 6, 7 and 8)
# hepatocytes [4] = assay: Glycogen synthesis in cultured hepatocytes; format: cell-based, rat; conditions: MEM culture medium containing 5 mM or 25 mM D-glucose
# Procedure: as §1
# hepatocytes [5] = assay: Lactic acid generation in hepatocytes; format: cell-based, rat; conditions: MEM culture medium containing 5 mM or 25 mM D-glucose
# Procedure: […] As a control, DMSO was added.
# as §1
# [6] = 2 g/kg D-glucose oral alone, 30 and 60 minutes, vs starved
structure (smiles),measurement,setting,value
O=C[C@H](O)[C@@H](O)[C@H](O)[C@H](O)CO [D-glucose],glucokinase fluorescence in the cytoplasm (liver),glucokinase [1]; [6],fluorescence in the cytoplasm was inversely increased
same,glucokinase fluorescence in the nucleus (liver),glucokinase [1]; [6],Fluorescence in the nucleus was reduced
same,glucokinase transfer from the nucleus to the cytoplasm in hepatocytes,glucokinase [1]; oral D-glucose alone,glucokinase transferred from the nucleus to the cytoplasm
same,cytoplasmic glucokinase level (fluorescence intensity analysis),"glucokinase [1]; oral D-glucose vs 24-hour fasting, central vein and portal vein regions",significantly increased
same,glucokinase transfer from the nucleus to the cytoplasm in hepatocytes,glucokinase [2],glucokinase transfer from the nucleus to the cytoplasm occurred slightly
same,cytoplasmic glucokinase,"glucokinase [3]; 25 mM D-glucose, 37° C. for 30 minutes, vs 5 mM D-glucose",the cytoplasmic glucokinase was increased
same,glucokinase transfer from nucleus to cytoplasm,glucokinase [3]; MEM culture medium containing 5 mM or 25 mM D-glucose,increased
same,glycogen synthesis,hepatocytes [4],increased
same,lactic acid generation,hepatocytes [5],increased
